We go through one compound from publication PMC7403668, “Intellectual disability‐associated gene ftsj1 is responsible for 2′‐O‐methylation of specific tRNAs” (EMBO Reports, 2020).

One experiment concerns the target T1, FTSJ1 (FTSJ1-His) (Homo sapiens, UniProt Q9UET6).
T1 construct: full-length, C-terminal His6-tag kept, baculovirus/High Five insect cells; cDNA from HeLa RNA; 327 residues as printed
T1 sequence (Q9UET6 1-327 isoform Q9UET6-2): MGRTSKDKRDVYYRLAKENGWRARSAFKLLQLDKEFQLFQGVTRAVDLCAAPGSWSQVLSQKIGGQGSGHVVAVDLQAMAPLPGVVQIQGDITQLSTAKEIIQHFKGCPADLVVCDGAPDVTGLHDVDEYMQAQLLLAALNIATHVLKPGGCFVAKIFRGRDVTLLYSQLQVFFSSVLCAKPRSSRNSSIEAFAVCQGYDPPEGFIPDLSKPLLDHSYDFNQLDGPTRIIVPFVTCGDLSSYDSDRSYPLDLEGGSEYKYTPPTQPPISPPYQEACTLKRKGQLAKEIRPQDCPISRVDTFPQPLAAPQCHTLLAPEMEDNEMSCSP
The experiment in a line: isothermal titration calorimetry (iTC200), one-site model. Format: binding.

In a further experiment the target is T2, FTSJ1-WDR6 (Homo sapiens, UniProt Q9UET6).
T2 construct: mixture of FTSJ1 (C-terminal His6, High Five cells) and WDR6 (N-terminal GST, Sf9 cells), purified separately; binary complex; with tRNA (34-2'-O)-methyltransferase regulator WDR6
T2 sequence (Q9UET6 1-327 isoform Q9UET6-2): T1 sequence (Q9UET6 1-327 isoform Q9UET6-2)
T2 sequence (Q9NNW5 1-1121 partner): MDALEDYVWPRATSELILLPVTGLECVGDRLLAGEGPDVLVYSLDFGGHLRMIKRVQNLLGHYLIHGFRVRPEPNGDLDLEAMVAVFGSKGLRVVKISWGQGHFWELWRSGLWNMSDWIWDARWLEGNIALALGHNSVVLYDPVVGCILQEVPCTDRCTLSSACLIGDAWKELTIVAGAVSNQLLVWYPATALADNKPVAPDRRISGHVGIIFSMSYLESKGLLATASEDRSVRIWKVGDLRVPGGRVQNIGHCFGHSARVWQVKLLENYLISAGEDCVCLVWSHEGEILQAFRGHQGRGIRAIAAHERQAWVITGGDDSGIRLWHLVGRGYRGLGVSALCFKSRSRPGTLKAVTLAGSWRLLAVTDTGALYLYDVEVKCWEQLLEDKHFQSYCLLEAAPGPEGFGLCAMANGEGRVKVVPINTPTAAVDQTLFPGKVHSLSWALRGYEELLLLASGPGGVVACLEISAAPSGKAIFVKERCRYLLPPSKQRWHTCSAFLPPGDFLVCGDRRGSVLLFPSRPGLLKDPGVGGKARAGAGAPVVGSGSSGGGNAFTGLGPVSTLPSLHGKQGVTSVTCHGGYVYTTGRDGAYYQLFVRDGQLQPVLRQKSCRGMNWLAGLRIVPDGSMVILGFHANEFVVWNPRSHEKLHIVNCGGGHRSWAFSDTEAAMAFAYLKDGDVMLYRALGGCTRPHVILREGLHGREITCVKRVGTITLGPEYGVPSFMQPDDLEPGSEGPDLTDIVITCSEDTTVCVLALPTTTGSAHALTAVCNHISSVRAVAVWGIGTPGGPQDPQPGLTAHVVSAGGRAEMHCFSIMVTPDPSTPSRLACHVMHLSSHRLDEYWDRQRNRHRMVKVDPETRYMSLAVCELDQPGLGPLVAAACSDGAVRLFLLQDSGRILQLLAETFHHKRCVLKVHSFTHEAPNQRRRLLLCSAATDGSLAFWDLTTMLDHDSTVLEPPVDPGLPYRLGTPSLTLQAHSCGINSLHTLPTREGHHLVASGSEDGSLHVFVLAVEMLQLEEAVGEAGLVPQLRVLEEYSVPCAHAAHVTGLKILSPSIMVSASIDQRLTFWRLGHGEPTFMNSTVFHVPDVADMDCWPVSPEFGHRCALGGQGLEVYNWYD
Put plainly: tRNA […]'-O-methyl transfer, UPLC-MS/MS of Gm34. The class given is biochemical. To be noted: methyl donor, 100 μM SAM; co-substrate 5 μM tRNAPhe(GAA) from ftsj1 KO cells or with m1G37; 10 mM MgCl2, pH 7.5, 37°C, 2 h.

One may read the Kd as the concentration at which binding is half-saturated. Read a low Kd as a tighter complex. In turn, `C[S+](CC[C@H](N)C(=O)O)C[C@H]1O[C@@H](n2cnc3c(N)ncnc32)[C@H](O)[C@@H]1O` (some centres unmarked) [SAM] displayed a Kd on FTSJ1 (FTSJ1-His) of roughly 4 µM. In addition, the “tRNA 2'-O-methyl transfer, UPLC-MS/MS of Gm34” value on FTSJ1-WDR6 is recorded as “robust Gm formation was detected after incubation with FTSJ1‐WDR6”.
